Values of other authors, collected in US20110052690A1, “PROCESS FOR MANUFACTURE OF A MEDICAMENT WITH GRANULATION AND PAN COATING” (priority 2008, published 2011).
Structures can show the parent of a compound that is named as a salt.

Settings: plural daily dosing regime, compressed tablets

Structure (SMILES): COc1ccc(C(CN(C)C)C2(O)CCCCC2)cc1 (centres unmarked) [venlafaxine hydrochloride, 1-[(2-dimethylamino)-1-(4-methoxyphenyl)ethyl] cyclohexanol]
- patients experiencing nausea: about forty five
- patients in whom vomiting occurs: about seventeen
